Measured values reported in patent US20250263441A1 (Metanovas Biotech Inc., priority 2024, published 2025).
Where “and” joins values, the source holds several entries; their conditions need not be identical. Equal entries are not always repeated.

How the values were obtained:
Type in all cases: cell-based
Candida albicans = assay: Minimum inhibitory concentration on Candida albicans (liquid culture); settings: 37° C., 24 to 48 hours
Method: Primary screening of liquid culture: the peptides in Examples 1 to 2 were dissolved in pure water to a concentration of 100 μg/mL. Using a micropipette, 10 μL of the peptides were added to a new 96-well plate in order from left to right, starting from the second compartment. Positive and negative controls were established for use. The 96-well plates were arranged vertically, and the peptide concentrations of the control groups were the same as those of the antimicrobial peptide. The control groups consisted of: pure water and bacteria, antimicrobial peptide FK13 and bacteria, and antimicrobial peptide HPA3NT3 and bacteria. An aseptic medium was used. The amino acid sequence of FK13 is […] (SEQ ID NO: 5), and the amino acid sequence of HPA3NT3 is […] (SEQ ID NO: 6).
If a 96-deep-well plate was used to culture bacteria, an additional 100 μL of sterile medium was added to all wells.
Candida albicans was inoculated in LB medium with normal oxygen concentration (21%) for 48 hours. […] clones were picked and incubated in LB medium at 37° C. with normal oxygen concentration (21%) for 48 hours. The bacterial concentration was measured and diluted to 107 CFU/mL with culture medium for use.
The prepared fresh bacterial suspension was diluted to 105 CFU/mL and added to the 96-well plate with 90 μL of the bacterial suspension per well, and incubated at 37° C. with normal oxygen concentration for 24 to 48 hours. The absorbance at 630 nm was measured with a microplate reader, and the degree of turbidity was observed by the naked eye.
(iv) Repetition of Operations: The Operations in (iii) were Repeated Twice, and the Decision to Perform a Third Repetition was Based on the Reproducibility of the Experiment.

[1] = test system: rabbit blood erythrocytes; assay: Measurement of hemolytic concentration; settings: for Hemolysis rate: 37° C., 1 hour, replicate wells
Method: 4 mL of 2% rabbit blood erythrocytes were washed twice with 4 mL PBS and centrifuged at 3000 rpm for 5 minutes. The supernatant was discarded, and the rabbit blood erythrocytes were resuspended in 4 mL PBS. 160 μg of the peptides from Examples 1 to 2, FK13, and HPA3NT3 were independently dissolved in 1 mL PBS buffer to prepare the peptide mother solutions with a concentration of 160 μg/mL. Subsequently, the peptide mother solutions were diluted with PBS buffer to concentrations of 80 μg/mL, 64 μg/mL, 32 μg/mL, 16 μg/mL, and 8 μg/mL. 100 μL of the 2% rabbit blood erythrocytes and 100 μL of different concentrations of peptides (80 μg/mL, 64 μg/mL, 32 μg/mL, 16 μg/mL, 8 μg/mL) were added to each well of a 96-well plate. In the negative control, 100 μL of PBS buffer was added, while in the positive control, 100 μL of 0.1% (w/v) Triton X-100 was added. Three replicate wells were set up for each group and incubated at 37° C. for 1 hour. The 96-well plate was then removed, centrifuged at 3000 rpm for 5 minutes, and 100 μL of supernatant was aspirated and transferred to a new 96-well plate. The absorbance was measured at 540 nm using an enzyme meter. Hemolysis rate (%)=((Absorbancesample−Absorbancenegative)/(Absorbancepositive−Absorbancenegative))*100%.

[2] = test system: HaCat (human immortalized epidermal cells) cells; assay: Cytotoxic assay (CCK-8) in HaCat cells; settings: 60 hours
Method: Preparation of Cell Suspension: HaCat (human immortalized epidermal cells) cells were counted and inoculated into 96-well plates. 100 μL of cell suspension was added to each well, corresponding to a density of 5×10^4 cells per well, with three replicates for each sample. The cells were cultured in a 37° C. incubator for 4 hours until they were attached to the plate. Peptides from the examples, as well as FK13 and HPA3NT3, were then added at concentrations of 80 μg/mL, 32 μg/mL, and 8 μg/mL. The cells were incubated at 37° C. for 60 hours. Afterward, 10 μL of CCK-8 solution was added, and the cells were cultured for an additional 2 hours. The absorbance of the peptides at 450 nm was measured using a dual-wavelength detector, with a detection wavelength of 450-490 nm and a reference wavelength of 600-650 nm.

[3] = test system: Propionibacterium acnes (ATCC: 6919); assay: Inhibitory effect of AMP-33 on Propionibacterium acnes (viability, OD 630 nm); design: Viability of Propionibacterium acnes: unit: %; settings: for Viability of Propionibacterium acnes: 48 hours, repeated experiments
Method: (1) Propionibacterium acnes was inoculated into Wilkins Chalgren liquid medium and cultured overnight under anaerobic conditions at 37° C. (Labiophy HL-B fully automated anaerobic workstation).
(2) 200 μL of the Wilkins Chalgren liquid culture medium and a predetermined concentration of the peptide AMP-33 were added to a 96-deep-well plate. Then, 10 μL of Propionibacterium acnes was inoculated (mix well before inoculation).
(3) After 48 hours of cultivation under anaerobic conditions at 37° C., the turbidity of the bacterial solution was observed. Then, 100 μL of the solution was taken, and the OD at 630 nm was measured using the enzyme-linked immunosorbent assay (ELISA) reading plate (after multiple blows and mixing).
[formula] • OD Measurement: OD value of the test peptide. • ODneg: OD value with no bacterial inoculation, containing only […] medium. • ODpos: OD value with bacterial inoculation and without inhibitors.

[4] = test system: Mouse macrophage RAW264.7 cells; assay: RT-qPCR of inflammation markers in LPS-stimulated RAW264.7 cells; settings: LPS 10 ng/ml, 24 hours; repeated experiments
Method: (1) Mouse macrophage RAW264.7 cells were cultured in DMEM supplemented with 10% fetal bovine serum (FBS) and 1% penicillin and streptomycin (P/S) at 37° C. in a 5% CO2 incubator.
(2) 5×10^4 mouse-derived RAW264.7 macrophages were placed in 12-well cell culture plates and cultured for 24 hours. Then, 20 μL of PBS (negative control), Dexamethasone (positive control), and the test peptide were added to the wells for incubation for 2 hours. Afterward, 10 ng/ml of lipopolysaccharide (LPS) was mixed with RAW264.7 cells and incubated for 24 hours.
(4) The cells were collected, and total RNA was isolated and extracted, reverse transcribed, and subjected to RT-qPCR to detect inflammation markers, including TNF-α, IL-1β, IL-6/10, CCL2, IFN-γ, iNOS, and GAPDH.
3. After treating RAW264.7 cells with AMP-33, RT-qPCR was used to detect the levels of IL-6 and IL-1ß mRNA.

Example 2: LSKWLKKLGKLLAG (designated as AMP33)
Minimum inhibitory concentration on Candida albicans (Candida albicans): 25 µg/mL
Hemolysis rate ([1]; 8 μg/mL): 3.6% and 7.9% and 23%
Hemolysis rate ([1]; 16 μg/mL): 2.6% and 1.7% and −0.4%
Hemolysis rate ([1]; 32 μg/mL): 0.6% and 4.6% and 3.3%
Hemolysis rate ([1]; 64 μg/mL): 0.7% and −0.8% and −2.0%
Hemolysis rate ([1]; 80 μg/mL): 10.1% (2×) and 11.1%
Minimum hemolytic concentration ([1]; rabbit erythrocytes): 64.0 µg/mL
Maximum cytotoxicity-free concentration [2]: 80 µg/mL
Viability of Propionibacterium acnes ([3]; 1 μg/mL): 94.82 and 113.75 and 94.03
Viability of Propionibacterium acnes ([3]; 2 μg/mL): 79.37 and 65.48 and 68.87
inhibition of Propionibacterium acnes ([3]; 4 ppm): over 90%
CCL-2 mRNA level [4]: 0.51 and 0.52 and 0.58
COX-2 mRNA level [4]: 0.71 and 0.58 and 1.16
IL-1β mRNA level [4]: 0.40 and 0.45 and 0.77
IL-6 mRNA level [4]: 0.96 and 0.49 and 0.95
IL-10 mRNA level [4]: 1.80 and 2.50 and 1.32
